pIC50: −log10 of the molar value.
Legend:
[1] = human absorption data, from Ertl et al., J. Med. Chem., 2000; cited from earlier work
human NHE3 [2] = target: T1, human NHE3 (Homo sapiens, UniProt P48764); test: Cell-based assay of NHE-3 activity (pre-incubation inhibition), human; settings: human Preincuba assay; PS120 fibroblasts expressing human NHE3 and NHERF2
T1 construct: host or cells: PS120 fibroblasts
T1 sequence (P48764 26-834): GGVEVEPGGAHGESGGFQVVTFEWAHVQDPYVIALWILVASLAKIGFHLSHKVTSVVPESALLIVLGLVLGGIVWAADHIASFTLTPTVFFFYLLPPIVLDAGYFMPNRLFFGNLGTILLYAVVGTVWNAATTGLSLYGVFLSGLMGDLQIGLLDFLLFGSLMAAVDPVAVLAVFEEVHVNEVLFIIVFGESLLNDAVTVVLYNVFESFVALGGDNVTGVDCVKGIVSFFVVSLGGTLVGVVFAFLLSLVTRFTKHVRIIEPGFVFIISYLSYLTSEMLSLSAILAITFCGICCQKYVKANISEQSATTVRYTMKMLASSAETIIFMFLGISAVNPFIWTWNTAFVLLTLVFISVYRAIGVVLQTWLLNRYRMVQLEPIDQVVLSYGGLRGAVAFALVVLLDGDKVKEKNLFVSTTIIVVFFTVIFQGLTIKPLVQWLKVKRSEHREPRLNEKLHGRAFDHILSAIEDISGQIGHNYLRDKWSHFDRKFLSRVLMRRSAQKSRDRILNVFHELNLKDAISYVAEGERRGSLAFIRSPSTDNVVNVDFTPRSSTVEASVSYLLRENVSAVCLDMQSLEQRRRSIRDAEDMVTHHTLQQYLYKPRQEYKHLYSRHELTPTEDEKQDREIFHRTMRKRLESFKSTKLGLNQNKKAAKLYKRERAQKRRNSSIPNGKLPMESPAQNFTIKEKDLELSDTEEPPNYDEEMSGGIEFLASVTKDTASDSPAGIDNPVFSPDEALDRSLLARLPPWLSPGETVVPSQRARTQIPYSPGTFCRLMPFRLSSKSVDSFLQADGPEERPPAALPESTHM
T1 sequence (Q99653 2-195 partner limits assumed): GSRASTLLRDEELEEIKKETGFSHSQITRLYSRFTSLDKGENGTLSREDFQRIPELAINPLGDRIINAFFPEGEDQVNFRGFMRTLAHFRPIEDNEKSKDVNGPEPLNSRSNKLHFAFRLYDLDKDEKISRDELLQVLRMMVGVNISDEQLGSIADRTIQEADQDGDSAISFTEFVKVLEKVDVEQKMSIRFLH
Experimental: Rat and human NHE-3-mediated Na^+-dependent H^+ antiport was measured using a modification of the pH sensitive dye method originally reported by Paradiso (Proc. Natl. Acad. Sci. USA. (1984) 81(23): 7436-7440). PS120 fibroblasts stably expressing human NHE3 and NHERF2 were obtained from Mark Donowitz (Baltimore, Md.). Opossum kidney (OK) cells were obtained from the ATCC and propagated per their instructions. The rat NHE-3 gene (GenBank M85300) was introduced into OK cells via electroporation, and cells were seeded into 96 well plates and grown overnight. Medium was aspirated from the wells then incubated for 30 min at 37° C. with NH4Cl-HEPES buffer (20 mM […], 80 mM NaCl, 50 mM HEPES, 5 mM KCl, 2 mM CaCl2, 1 mM MgCl2, pH 7.4) containing 5 μM BCECF-AM. Cells were washed once with Ammonium free, Na^t-free HEPES (100 mM choline, 50 mM HEPES, 10 mM glucose, 5 mM KCl, 2 mM CaCl2), 1 mM MgCl2, pH 7.4) and incubated in the same buffer for 10 minutes at room temperature to lower intracellular pH with 0-30 μM test compound. […] Changes in intracellular pH were monitored using a FLIPR Tetra®® (Molecular Devices, Sunnyvale, Calif.) by excitation at λex 439 to 505 nm, and measuring BCECF fluorescence at λem 538 nm. The initial rate of the fluorescence ratio change was used as a measure of NHE-mediated Na^+/H^+ activity, and reported as the change in fluorescence ratio per minute.

human NHE3 [3] = target: T1, human NHE3; test: Cell-based assay of NHE-3 activity (persistent inhibition after washout), human; settings: human Persistence assay; after 60 min incubation and washout
Experimental: The ability of compounds to inhibit human and rat NHE-3-mediated Na^+-dependent H^+ antiport after application and washout was measured using a modification of the pH sensitive dye method described above. PS120 fibroblasts stably expressing human NHE3 and NHERF2 were obtained from Mark Donowitz (Baltimore, Md.). Opossum kidney (OK) cells were obtained from the ATCC and propagated per their instructions. The rat NHE-3 gene was introduced into OK cells via electroporation, and cells were seeded into 96 well plates and grown overnight. Medium was aspirated from the wells, cells were washed once with NaCl-HEPES buffer (100 mM NaCl, 50 mM HEPES, 10 mM glucose, 5 mM KCl, 2 mM CaCl2, 1 mM MgCl2, pH 7.4), then overlayed with NaCl-HEPES buffer containing 0-30 μM test compound. After a 60 min incubation at room temperature, the test drug containing buffer was aspirated from the cells. Following aspiration, cells were washed once with NaCl-HEPES buffer without drug, then incubated for 30 min at 37° C. with NH4Cl-HEPES buffer (20 mM NH4Cl, 80 mM NaCl, 50 mM HEPES. 5 mM KCl, 2 mM CaCl2), 1 mM MgCl2, pH 7.4) containing 5 μM BCECF-AM. Cells were washed once with Ammonium free, Na^+-free HEPES (100 mM choline, 50 mM HEPES, 10 mM glucose. 5 mM KCl, 2 mM CaCl2), 1 mM MgCl2, pH 7.4) and incubated in the same buffer for 10 minutes at room temperature to lower intracellular pH. NHE-3-mediated recovery of neutral intracellular pH was initiated (10 min after compound washout) by addition of Na-HEPES buffer. […] Changes in intracellular pH were monitored using a FLIPR Tetra® (Molecular Devices, Sunnyvale, Calif.) by excitation at λex 439 to 505 nm, and measuring BCECF fluorescence at λem 538 nm. The initial rate of the fluorescence ratio change was used as a measure of NHE-mediated Na^+/H^+ activity, and reported as the change in fluorescence ratio per minute.

| SMILES | $ FA [1] | % inhibition (human NHE3 [2]) | pIC50 (human NHE3 [2]) | % inhibition (human NHE3 [3]) | pIC50 (human NHE3 [3]) |
| --- | --- | --- | --- | --- | --- |
| OC[C@H]1O[C@@H](O[C@@H]2[C@@H](CO)OC(O)(CO)[C@H]2O)[C@H](O)[C@@H](O)[C@H]1O (mixture of isomers) [lactulose] | 0.6 |  |  |  |  |
| CN1Cc2c(Cl)cc(Cl)cc2C(c2cccc(S(=O)(=O)N[C@@H]3CCN(CCOCCNC(=O)NCCCCNC(=O)NCCOCCN4CC[C@@H](NS(=O)(=O)c5cccc(C6CN(C)Cc7c(Cl)cc(Cl)cc76)c5)C4)C3)c2)C1 (stereo partly drawn) [Example 24, N,N′-[(3R,3′R)-(7,14-Dioxo-3,18-dioxa-6,8,13,15-tetraazaicosane-1,20-diyl)bis(pyrrolidine-1,3-diyl)]bis[3-(6,8-dichloro-2-methyl-1,2,3,4-tetrahydroisoquinolin-4-yl)benzenesulfonamide]] |  | C (>70%) | > 7.00 | C (>70%) | > 7.00 |
| CN1Cc2c(Cl)cc(Cl)cc2[C@H](c2cccc(S(=O)(=O)NC(C)(C)COCCOCCNC(=O)NCCCCNC(=O)NCCOCCOCC(C)(C)NS(=O)(=O)c3cccc([C@@H]4CN(C)Cc5c(Cl)cc(Cl)cc54)c3)c2)C1 [Example 47, 3-(2-[2-[2-([3-[(4S)-6,8-dichloro-2-methyl-1,2,3,4-tetrahydroisoquinolin-4-yl]benzene]sulfonamido)-2-methylpropoxy]ethoxy]ethyl)-1-(4-[[(2-[2-[2-([3-[(4S)-6,8-dichloro-2-methyl-1,2,3,4-tetrahydroisoquinolin-4-yl]benzene]sulfonamido)-2-methylpropoxy]ethoxy]ethyl)carbamoyl]amino]butyl)urea] |  | C (>70%) | > 7.00 | C (>70%) | 6.00 to 7.00 |
| CN1Cc2c(Cl)cc(Cl)cc2[C@H](c2cccc(S(=O)(=O)N3CCC(OCCOCCNC(=O)NCCCCNC(=O)NCCOCCOC4CCN(S(=O)(=O)c5cccc([C@@H]6CN(C)Cc7c(Cl)cc(Cl)cc76)c5)CC4)CC3)c2)C1 [Example 48] |  | C (>70%) | > 7.00 | C (>70%) | 6.00 to 7.00 |
| CN1Cc2c(Cl)cc(Cl)cc2[C@H](c2cccc(S(=O)(=O)N3CC[C@@H](OCCOCCNC(=O)NCCCCNC(=O)NCCOCCO[C@@H]4CCN(S(=O)(=O)c5cccc([C@@H]6CN(C)Cc7c(Cl)cc(Cl)cc76)c5)C4)C3)c2)C1 [Example 49, 1-(2-(2-(((R)-1-((3-((S)-6,8-dichloro-2-methyl-1,2,3,4-tetrahydroisoquinolin-4-yl)phenyl)sulfonyl)pyrrolidin-3-yl)oxy)ethoxy)ethyl)-3-(4-(3-(2-(2-(((R)-1-((3-((S)-6,8-dichloro-2-methyl-1,2,3,4-tetrahydroisoquinolin-4-yl)phenyl)sulfonyl)pyrrolidin-3-yl)oxy)ethoxy)ethyl)ureido)buty)urea] |  | C (>70%) | > 7.00 | C (>70%) | 6.00 to 7.00 |
| CN1Cc2c(Cl)cc(Cl)cc2[C@H](c2cccc(S(=O)(=O)N3CC[C@H](OCCOCCNC(=O)NCCCCNC(=O)NCCOCCO[C@H]4CCN(S(=O)(=O)c5cccc([C@@H]6CN(C)Cc7c(Cl)cc(Cl)cc76)c5)C4)C3)c2)C1 [Example 50] |  | C (>70%) | > 7.00 | C (>70%) | 6.00 to 7.00 |
| CC(C)[C@H](COCCOCCNC(=O)NCCCCNC(=O)NCCOCCOC[C@H](NS(=O)(=O)c1cccc([C@@H]2CN(C)Cc3c(Cl)cc(Cl)cc32)c1)C(C)C)NS(=O)(=O)c1cccc([C@@H]2CN(C)Cc3c(Cl)cc(Cl)cc32)c1 [Example 51] |  | A (NHE3 <40%) | < 6.00 | A (NHE3 <40%) | < 6.00 |
| C=CCc1ccccc1OCC(O)CNC(C)C (stereo not shown) [alprenolol] | 96 |  |  |  |  |
| O=C(O)P(=O)(O)O [foscarnet] | 17 |  |  |  |  |
| OC[C@@H](O)[C@@H](O)[C@H](O)[C@H](O)CO [mannitol] | 26 |  |  |  |  |
| Cc1ccccc1N1C(=O)c2cc(S(N)(=O)=O)c(Cl)cc2NC1C (stereo not shown) [metolazone] | 64 |  |  |  |  |
| O=C(O)c1cc(/N=N/c2ccc(O)c(C(=O)O)c2)ccc1O [olsalazine] | 2.3 |  |  |  |  |
| C=CCOc1ccccc1OCC(O)CNC(C)C (stereo not shown) [oxyprenolol] | 97 |  |  |  |  |
| CC(C)NCC(O)COc1cccc2[nH]ccc12 (stereo not shown) [pindolol] | 92 |  |  |  |  |
| CC(=O)Nc1ccc(OCC(O)CNC(C)C)cc1 (stereo not shown) [practolol] | 95 |  |  |  |  |
| OC[C@H]1O[C@H](OC[C@H]2O[C@H](O[C@]3(CO)O[C@H](CO)[C@@H](O)[C@@H]3O)[C@H](O)[C@@H](O)[C@@H]2O)[C@H](O)[C@@H](O)[C@H]1O [raffinose] | 0.3 |  |  |  |  |
| O=C(O)c1cc(/N=N/c2ccc(S(=O)(=O)Nc3ccccn3)cc2)ccc1O [sulfasalazine] | 12 |  |  |  |  |
| CCN1CCCC1CNC(=O)c1cc(S(N)(=O)=O)ccc1OC (stereo not shown) [sulpiride] | 36 |  |  |  |  |
| NC[C@H]1CC[C@H](C(=O)O)CC1 [tranexamic acid] | 55 |  |  |  |  |
